Data taken from PubChem BioAssay (NCI).
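Five concentrations, 48 hours, 96-well plates. The concentration for 50% growth inhibition is given as GI50. TGI marks complete inhibition of growth.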

Experiments:
Assay in all cases: NCI-60 cell line screen, 48 h
[1] = tested on: M19-MEL melanoma
[2] = tested on: SNB-78 CNS
[3] = tested on: DLD-1 colon
[4] = tested on: DMS 114 small cell lung
[5] = tested on: RXF-631 renal
[6] = tested on: KM20L2 colon
[7] = tested on: XF 498 CNS
[8] = tested on: MDA-N
[9] = tested on: HOP-18 NSCLC

Compound | TGI [1] [µM] | TGI [2] [µM] | TGI [3] [µM] | TGI [4] [µM] | TGI [6] [µM] | TGI [7] [µM] | TGI [8] [µM] | TGI [9] [µM] | further results
CN1CCCC2(CCCc3ccccc32)C1 (stereo not drawn) | > 100 | > 100 | > 100 | > 100 | > 100 |  |  |  | TGI [5]: > 100 µM
CN(C)CC(C)(C)C(=O)/C=C/c1ccc(/C=C/C(=O)C(C)(C)CN(C)C)cc1 | 3.14 |  | 1.01 | 2.76 | 2.35 | 2.55 |  |  | TGI [5]: 4.14 µM
CCCC(=O)NC1=C(Cl)C(=O)c2ccccc2C1=O |  |  |  |  |  |  | 14.6 |  | 
C=C(C)C(=O)O[C@H]1C[C@@]23O[C@@H]2CCC(=C[C@H]2OC(=O)C(=C)[C@H]12)COC3O (stereo partly drawn) |  |  |  |  |  |  | > 100 |  | 
[Cl][Hg][Cl] |  |  |  |  |  |  | 28.9 |  | GI50 [8]: 15.5 µM
COc1ccc2c(CN3CCCCC3CO)cc3cc(OC)c(OC)cc3c2c1 (stereo not drawn) | 11.4 | 23.1 | > 100 | 15.8 | 15.2 | 18.9 |  | 38 | 
[Cl-].[O-]/N=C(\c1ccccc1)c1ccccn1.[O-]/N=C(\c1ccccc1)c1ccccn1.[O-]/N=C(\c1ccccc1)c1ccccn1.[Sm+3] | 45.7 |  | > 100 | 72 | > 100 |  |  |  | GI50 [1]: 21.2 µM; GI50 [3]: 33 µM; GI50 [4]: 23 µM; GI50 [6]: 40.1 µM
COc1ccc(OC)c2c1CC(C(=O)O)(C(=O)O)CC2=O |  | > 100 |  | > 100 | > 100 |  |  |  | 
O=c1nc(/C=C/c2ccccc2Cl)cc2n1CCN2CCO | > 100 |  | > 100 | > 100 |  |  |  |  | 
O=C(CP(=O)(O)O)NC(CC(=O)OCc1ccccc1)C(=O)OCc1ccccc1 (stereo not drawn) |  |  |  |  |  |  | > 100 |  | 
Cc1[nH]c2ccccc2c1C(=O)CC1(O)C(=O)Nc2ccccc21 (stereo not drawn) | > 100 | > 100 | > 100 |  | > 100 |  |  |  | TGI [5]: > 100 µM
COc1ccc2c(c1)N1CCc3cc(OC)c(OC)cc3C1C2 (stereo not drawn) | > 100 | > 100 | > 100 | > 100 | > 100 | > 100 |  | > 100 | 
CC(=O)[CH-]C(C)=O.CC(=O)[CH-]C(C)=O.[CH2-]CCC.[CH2-]CCC.[Sn+4] |  |  | 1.58 | 0.301 | 2.65 | 1.07 |  | 1.88 | GI50 [9]: 0.569 µM; GI50 [7]: 0.262 µM; GI50 [3]: 0.475 µM; GI50 [6]: 1.36 µM
CN(C)CC(C)(C)/C(=N\Nc1ccccc1)c1ccccc1 | > 100 | > 100 | > 100 | > 100 | 36.7 |  |  | > 100 | 
CCOC(=O)C1N(S(=O)(=O)c2ccc(C)cc2)CCC12c1ccccc1N(C(C)=O)C2c1ccc(OC)c(OC)c1 (stereo not drawn) | > 100 | > 100 | > 100 | > 100 | > 100 | > 100 |  |  | 
c1cc(N(CCn2cccn2)CCn2cccn2)cc(N(CCn2cccn2)CCn2cccn2)c1 | > 100 | > 100 | > 100 | > 100 | > 100 | > 100 |  |  | TGI [5]: > 100 µM
FC(F)(F)c1nc2nc(Cl)c(Cl)nc2n1CCCN1CCOCC1 |  |  |  |  |  |  | > 100 |  | 
CC(=O)OCC1OC(n2c(-c3ccc(Cl)cc3)ccc(C#N)c2=S)C(OC(C)=O)C(OC(C)=O)C1OC(C)=O (stereo not drawn) |  |  |  |  |  |  | > 100 |  | 
O=C1c2ccccc2C(Br)(Br)c2ccccc21 | > 31.6 | > 100 | > 31.6 | > 31.6 | > 100 | 97.8 |  | > 31.6 | 
Cc1ccc(S(=O)(=O)N/N=C(\c2nc3ccc(Cl)cc3[nH]c2=O)C(O)c2cccc([N+](=O)[O-])c2)cc1 (stereo not drawn) | > 100 | > 100 | > 100 | > 100 | > 100 | > 100 |  | > 100 | TGI [5]: > 100 µM
COc1ccc(OC)c(/C(C)=N/NC(N)=S)c1 | > 100 | > 100 | > 100 | > 100 | > 100 | > 100 |  | > 100 | 

Compound | TGI [1] [µM] | TGI [2] [µM] | TGI [3] [µM] | TGI [4] [µM] | TGI [6] [µM] | TGI [7] [µM] | TGI [8] [µM] | TGI [9] [µM] | further results
C[N-]c1nnnn1C.[Au+].c1ccc([PH+](c2ccccc2)c2ccccc2)cc1 | 14.9 | > 69.1 | 5.02 | > 100 | 10.3 |  |  | 5.96 | GI50 [9]: 2.35 µM; GI50 [1]: 2.9 µM; GI50 [2]: 5.28 µM; GI50 [3]: 2.05 µM; GI50 [4]: 2.57 µM; GI50 [6]: 4.05 µM
O=C(O)CCCCCCC[C@H]1S[C@H]1CCCCCCO | > 100 | > 100 | > 100 | > 100 |  | > 100 |  | > 100 | 
COC(=O)N(C(=O)OC)C(C(=O)O)C(C)C (stereo not drawn) | > 100 | > 100 | > 100 | > 100 | > 100 |  |  | > 100 | 
COc1ccc(Nc2nc3ccc(C(F)(F)F)cc3nc2-c2ccccc2)cc1OC |  |  | > 100 | > 100 |  | 85 |  |  | TGI [5]: > 100 µM
C=C(COC(C)=O)CC(OC(C)=O)c1ccccc1 (stereo not drawn) | > 100 | > 100 | > 100 | > 100 | > 100 | > 100 |  |  | 
Cc1ccc(SC(CCC(Sc2ccc(C)cc2)Sc2ccc(C)cc2)Sc2ccc(C)cc2)cc1 | > 100 | > 100 | > 100 | > 100 | > 100 | > 100 |  |  | TGI [5]: > 100 µM
C=C1C(=O)O[C@@H]2C[C@@H](C)[C@@H]3C=CC(=O)[C@@]3(C)[C@@H](OC(=O)CC(=O)O[C@H]3[C@@H]4C(=C)C(=O)O[C@@H]4C[C@@H](C)[C@@H]4C=CC(=O)[C@]43C)[C@H]12 | 0.0376 | 0.101 | < 0.0215 | 0.108 | 0.237 | 0.05 | 10.2 | 0.365 | TGI [5]: 0.455 µM
COc1cccc(-c2cc(=O)c3cc(OC)ccc3[nH]2)c1 |  |  |  |  |  |  | 0.131 |  | 
O=C1Nc2ccccc2C12CCNC2Cc1ccccc1 (stereo not drawn) | > 100 |  | > 100 | > 100 | > 100 | > 100 |  | > 100 | 
Cc1ccc(S(=O)(=O)NC(=O)C2C(=O)CC3(CCCCC3)CC2=O)cc1 |  |  |  |  |  |  | > 100 |  | 
CCCN(CCCC(NC(C)=O)C(=O)NCc1ccccc1)C(=O)N(CCCl)N=O (stereo not drawn) | 28.1 | 71 | 43.1 | 65.7 | 46.7 | 30.3 | > 100 | 64.7 | TGI [5]: > 77.6 µM
CCC12CCCN(Cc3ccccc3)C1c1c([nH]c3ccccc13)C(C(=O)OC)C2 (stereo not drawn) |  |  |  |  |  |  | > 10 |  | 
COc1ccc(-c2cc(=O)c3ccc(C)nc3[nH]2)cc1 |  |  |  |  |  |  | > 100 |  | GI50 [8]: 55.2 µM
CC1CCC2(CC1)NN=c1s/c(=C\c3ccc(O)cc3)c(=O)n1N2 (stereo not drawn) | > 100 | > 100 | > 100 | > 100 | > 100 | > 100 |  | > 100 | 
CC(C)CC(NC(=O)c1cccc(O)c1O)C(=O)NCc1cc(CNC(=O)C(CC(C)C)NC(=O)c2cccc(O)c2O)cc(CNC(=O)C(CC(C)C)NC(=O)c2cccc(O)c2O)c1 (stereo not drawn) |  | > 100 | > 100 | 18.4 | 21 |  |  | > 100 | 
Nc1ccccc1C(=O)CC1OC(=O)c2ccccc21 (stereo not drawn) |  |  |  |  |  |  | > 100 |  | 
Cc1cc(=O)oc2cc(OC(=O)N(C)C)c(Cl)cc12 |  |  |  |  |  |  | > 100 |  | 
CCCCCC[N+](C)(C)Cc1ccc(C[N+](C)(C)CCCCCC)cc1 |  | 5.15 | 26.5 |  | 34.4 |  |  | 21.8 | 
CC(C)=CC(=O)C/C(=N\NC(N)=S)C(=O)Nc1ccc(Cl)cc1 | > 100 | > 100 | > 100 | > 100 | > 100 |  |  | > 100 | 
Clc1ccc(SC(/C=C/NNC2=NC(c3ccccc3)C(c3ccccc3)=NN2)c2ccccc2)cc1 (stereo not drawn) | 99.4 | > 100 | > 100 | 75.6 | 53.7 | 54.6 |  |  | TGI [5]: > 100 µM
